The subject of assay [1] is VEGFR2. In words: Phosphorylation-specific antibody array of soleus muscle protein. The format is in vivo, mouse. To be noted: 20 month-old C57BL/6J mice, 2.0 mg/kg/d for 3 months. As to the method: In FIG. 10, a vertical axis denotes the amount of protein expressed in the experimental group compared to the control group (fluorescent intensity: arbitrary unit), and a horizontal axis denotes the type of phosphorylated protein measured, where the description in parentheses informs residue and location of the phosphorylated amino acid. […] The microarray analysis was performed by using a Phospho Explorer Antibody array (1312 antibodies, FULL MOON Biosystems), soleus muscle of the mice was obtained, protein was isolated therefrom, and used for the microarray analysis. In FIG. 10, p-VR1 and p-VR2 respectively denote phosphorylated VEGFR1 and VEGFR2.

Assay [2] concerns C57BL/6 mice. The experiment in a line: Fluorescein-lectin tracking and immunohistochemical assay on pancreas section. The format is in vivo, mouse. As to conditions: old mice, 2.0 mg/kg/d for 3 months. As to the method: (§1) C57BL/6 mice (hereinafter, also referred to as “B6”) at ages of 7 months and 24 months (female n=18, male n=12, Korean Basic Science Institute) were maintained according to the guideline of the Laboratory Animal Research Center of Sungkyunkwan University School of Medicine. The mice were allowed to have free access to water and feed. Each group of mice (n=5) drank 0.0, 0.5, or 2.0 mg/kg/day of dapsone (available from Tai Guk Pharm. Co.) for 3 months.
(§2) After 3 months, ear skin from both ears, trachea, both retinas, both kidneys, and pancreas were obtained from a mouse selected from each group of mice. In order to obtain these organs, the mouse was anesthetized by intraperitoneal injection of 100 mg/kg of […] (Entobal®) based on the weight of the mouse, […] of 1% paraformaldehyde was flowed through the heart to remove the blood in the body of the mouse. The organs were surgically obtained, and tissue from each of the organs was fixed in 4% of paraformaldehyde for 24 hours to prepare a frozen section having a thickness of 10 um. Immunofluorescence staining using anti-PECAM-1 antibody was performed on a sample of the frozen section. […] The measured fluorescent density denotes a density of endothelial cells, that is, blood vessels. […]

The subject of assay [3] is Tie2. The experiment in a line: Microarray analysis of gene expression in soleus muscle (Tie2). It is filed as in vivo, mouse. To be noted: middle (15 month-old) and old (20 month-old) mice, 2.0 mg/kg/d for 3 months. As to the method: (§3) In FIG. 9, a vertical axis denotes an expression amount of VEGF or Tie2 gene (fluorescent intensity: arbitrary unit), and a horizontal axis denotes a mouse subject. […] The microarray analysis was performed by using Agilent's Mouse Oligo Microarray (44K, Agilent Technology). 5 months-old, 15 months-old, and 20 months-old C57BL/6J mice had 2 mg/kg/d of dapsone for 3 months. […] After the 3 months, the 8 months-old, 18 months-old, and 23 months-old mice were anesthetized by injecting Entobar (sodium pentobarbital, 100 mg/kg per body weight), and then soleus muscle taken therefrom for microarray analysis was frozen. Ribonucleic acid was isolated from the muscle and used for the microarray analysis.

Assay [4] concerns C57BL/6 mice. The experiment in a line: Immunohistochemical assay (anti-PECAM-1) on mouse ear skin whole-mount. The format is in vivo. How it is done: as §1
as §2, with “section. For the immunofluorescence staining, the sample was blocked in a solution containing 5% donkey serum in phosphate buffered solution (PBS) containing 0.3% Triton-X 100 (0.3% PBST) for 1 hour. The anti-PECAM-1 antibody produced from American hamster was added to the solution to allow a primary reaction with antigen of the tissue at 4° C. for 12 hours. The sample was washed 6 times for 10 minutes with 0.3% PBS-T, and an anti-American hamster-Alexa594 antibody was added to 0.3 PBS-T to allow a secondary reaction with the anti-PECAM-1 antibody at 4° C. for 12 hours. The sample was washed 6 times for 10 minutes, attached to a slide glass, and thus image of the stained sample was obtained by a Carl Zeiss LSM710 confocal microscope.” for “section.”

Assay [5] has as its system C57BL/6 mice. In words: Fluorescein-lectin tracking and immunohistochemical assay on kidney section. The format is in vivo, mouse. As to conditions: old mice, 2.0 mg/kg/d for 3 months. As to the method: as §1, §2
Assay [6] concerns C57BL/6 mice. In words: Immunohistochemical assay (anti-PECAM-1) on trachea whole-mount of mouse. It is filed as in vivo. How it is done:
as §1
After 3 months, ear skin from both ears, trachea, both retinas, both kidneys, and pancreas were obtained from a mouse selected from each group of mice. In order to obtain these organs, the mouse was anesthetized by intraperitoneal injection of 100 mg/kg of […] (Entobal®) based on the weight of the mouse, […] of 1% paraformaldehyde was flowed through the heart to remove the blood in the body of the mouse. The organs were surgically obtained, and tissue from each of the organs was fixed in 4% of paraformaldehyde for 24 hours to prepare a frozen section having a thickness of 10 um. Immunofluorescence staining using anti-PECAM-1 antibody was performed on a sample of the frozen section. For the immunofluorescence staining, the sample was blocked in a solution containing 5% donkey serum in phosphate buffered solution (PBS) containing 0.3% Triton-X 100 (0.3% PBST) for 1 hour. The anti-PECAM-1 antibody produced from American hamster was added to the solution to allow a primary reaction with antigen of the tissue at 4° C. for 12 hours. The sample was washed 6 times for 10 minutes with 0.3% PBS-T, and an anti-American hamster-Alexa594 antibody was added to 0.3 PBS-T to allow a secondary reaction with the anti-PECAM-1 antibody at 4° C. for 12 hours. The sample was washed 6 times for 10 minutes, attached to a slide glass, and thus image of the stained sample was obtained by a Carl Zeiss LSM710 confocal microscope. Each of the images was sequentially taken with respect to the tissue having a thickness in a range of about 100 um to about 300 um as an axis, and then all the sub-images were projected in a z-axis direction. Thus the image is a projection image. Platelet endothelial cell adhesion molecule (PECAM-1) is also referred to as cluster of differentiation 31 (CD31), which is found in platelets or monocytes and on a surface of some types of T-cells, and constitutes most of endothelial cell intercellular junction. […] The measured fluorescent density denotes a density of endothelial cells, that is, blood vessels. Also, in terms of kidney tissue sections and pancreas tissue section, Fluorescein labeled Lycopersicon esculentum (tomato) lectin (hereinafter, also referred to as “Fluorescein-lectin”) was used as a tracer to verify blood vessel functionality of the sample. […]

The test system of assay [7] is VEGF. In words: Microarray analysis of gene expression in soleus muscle (VEGF). The format is in vivo, mouse. To be noted: middle (15 month-old) and old (20 month-old) mice, 2.0 mg/kg/d for 3 months. How it is done: as §3
Setting [8] is: old mice (27 months-old), 2.0 mg/kg/d for 3 months (O2 vs O0).

`Nc1ccc(S(=O)(=O)c2ccc(N)cc2)cc1` [dapsone, 4-[(4-aminobenzene)sulfonyl]aniline]: the “phosphorylation of VEGFR2 at T1175, T1059 and T1054 vs control group” value in assay [1] is listed as “significantly increased phosphorylation”. The “amount of blood vessels with decreased functionality (Fluorescein-lectin negative)” value in assay [2] is given as “reduced”. Further, the “level of Tie2 gene expression vs control groups” value in assay [3] is recorded as “did not change significantly”. Moreover, the “blood vessel density (PECAM-1 Alexa 594 fluorescence intensity) vs control group” value is given as “significant difference” in assay [4] (setting [8]); “no significant difference” in assay [4] (young mice (7 months-old), 0.5 mg/kg/d for 3 months (Y0.5 vs Y0)); “no significant difference” in assay [4] (young mice (7 months-old), 2.0 mg/kg/d for 3 months (Y2 vs Y0)); “significant difference” in assay [6] (old mice (27 months-old), 0.5 mg/kg/d for 3 months (O0.5 vs O0)); “significant difference” in assay [6] (setting [8]); “no significant difference” in assay [6] (young mice (7 months-old), 0.5 mg/kg/d in drinking water for 3 months (Y0.5 vs Y0)). Further, the “blood vessel density (PECAM-1 Alexa 594 fluorescence intensity) vs control group” value in assay [6] (young mice (7 months-old), 2.0 mg/kg/d in drinking water for 3 months (Y2 vs Y0)) is recorded as “no significant difference”. Also, in assay [5], the “blood vessel functionality (Fluorescein-lectin perfusion of PECAM-1 positive vessels)” value was “recovered to the similar level of the control group”. In assay [7], the “expression of VEGF gene vs control groups” value was “increased”.
